Data: patent US8282935B2 (priority 2001, dated 2012)

Test system: A2 molecules
Assay type: binding, human

M L L A V L Y C L (SEQ ID NO: 5) [tyrosinase 1-9]
binding affinity for A2 molecules: significantly lower affinity
